# Data published in patent US10308671B2, “Water-soluble derivatives of 3,5-diphenyl-diazole compounds” (Max-Planck-Gesellschaft zur Förderung, priority 2015, dated 2019).
# Like-named read-outs stand apart in the source and are kept apart here.
# Columns and labels:
# [1] = Solubility in water; type: physicochemical; conditions: for solubility: water
# [2] = Water-solubility test (visual inspection); type: physicochemical
# Procedure: The solubility of each compound in the water was evaluated by following protocol. Deionized water (1 ml) was added into glass tube containing 10 mg of compound. After shaking for 10 minutes the sample was visually inspected and formation of solution or suspension was documented.
# [3] = Pharmacokinetics in rats after single oral dose: anle138b in PEG/Cremophor (Phase 1) vs sery433 in aqueous buffer (Phase 2); type: in vivo, male Sprague Dawley rats; conditions: anle138b combined with excipients based on PEG/cremophor
# Procedure: In the experiment, a single oral dose of anle138b in PEG/Cremophor (“Phase 1”) and sery433 in aqueous solution (“Phase 2”) at a nominal dose of 10 mg/kg were administered to male Sprague Dawley Rats. The experiments were conducted with three rats which are identified as “1M”, “2M” and “3M”.
# This study was designed to assess the pharmacokinetics of anle138b and sery433 in male Sprague Dawley rats following single oral administration of anle138b (Phase 1) and sery433 (Phase 2). During Phase 1 and Phase 2 animals received each test compound, appropriately formulated, on one of two separate dose occasions in a cross over design. The dose level was 10 mg/kg for both compounds. The amount of sery433 was not corrected to the amount of anle138b which is present in the prodrug, so that due to the higher molecular weight of sery433 actually a lower amount of active agent was administered.
# Phase 1: three naïve male CD rats were dosed orally with anle138b at a target dose level of 10 mg/kg.
# Phase 2: one week later (wash out period), sery433 at a target dose of 10 mg/kg was administered orally to the same animals.
# During each phase an individual serial plasma profile was drawn from each animal over a period of 24 hours after dosing.
# The vehicle was prepared by weighing Cremophor RH40 (45% of final volume); PEG400 (35% of final volume) and Capryol 90 (20% of final volume). […]
solubility (in words) [1],solubility ([1]; read-out: solubility in water) [µM],"solubility ([1]; restates 0.2 μM, read-out: water-solubility) [µg/mL]","Result of solubility test ([2]; 10 mg compound in 1 ml deionized water, shaking 10 minutes, visual inspection)","solubility at 10 min ([2]; deionized water, water, thermodynamic from solid, read-out: amount soluble in water) [µg/mL]",anle138b exposure relative to the exposure reached by administration of sery433 [3] [%],Compound
even less soluble than anle138b,–,–,–,–,–,"CN(C)c1ccc(-c2cc(-c3cccc(Br)c3)[nH]n2)cc1 [Anle253b, 5-(3-Bromophenyl)-3-(4-dimethylaminophenyl)-1H-pyrazole]"
–,0.2,0.07,insoluble,0.0686,25,"Brc1cccc(-c2cc(-c3ccc4c(c3)OCO4)n[nH]2)c1 [anle138b, 5-(3-Bromophenyl)-3-(3,4-methylenedioxyphenyl)-1H-pyrazole]"
